Laboratory results reported in US6737383B1, “Herbicidal oxadiazolidines” (priority 1999, dated 2004).

Columns and labels:
cocklebur = assay: Test B pre/postemergence cocklebur; type: in vivo, Xanthium strumarium
In short: (§1)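 Test chemicals in a non-phytotoxic solvent mixture with surfactant were sprayed preemergence onto planted seeds and postemergence onto plants 2 to 18 cm tall (1- to 4-leaf stage). After twelve to sixteen days in a greenhouse, injury was visually rated against untreated controls from 0 (no effect) to 10 (complete control).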

rape = assay: Test B pre/postemergence rape; type: in vivo, Brassica napus
In short: as §1

sugar beet = assay: Test B pre/postemergence sugar beet; type: in vivo, Beta vulgaris
In short: as §1

bamyardgrass = assay: Test B flood test barnyardgrass; type: in vivo, Echinochloa crus-galli
In short: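 Flood test on plants grown to the 2-leaf stage; treated plants kept in greenhouse twelve to sixteen days, then visually rated against controls on a 0 (no effect) to 10 (complete control) scale.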

winter wheat [1] = assay: Test E winter wheat; type: in vivo, Triticum aestivum; conditions: Postemergence
In short: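 Postemergence: 60:40 sandy loam/greenhouse potting mix, 1- to 4-leaf stage. Formulation: solvent plus surfactant. Assessment: visual comparison with untreated controls at ~21–28 days.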

blackgrass = assay: Test E blackgrass; type: in vivo, Alopecurus myosuroides; conditions: Preemergence
green foxtail = assay: Test E green foxtail; type: in vivo, Setaria viridis; conditions: Preemergence
Italian ryegrass = assay: Test E Italian ryegrass; type: in vivo, Lolium multiflorum; conditions: Preemergence
winter wheat [2] = assay: Test E winter wheat; type: in vivo, Triticum aestivum; conditions: Preemergence
wild oat = assay: Test E wild oat; type: in vivo, Avena fatua; conditions: Preemergence
winter barley = assay: Test E winter barley; type: in vivo, Hordeum vulgare; conditions: Preemergence
[3] = Preemergence, Rate 250 g/ha, scale of 0 to 10 where 0 is no effect and 10 is complete control
[4] = Preemergence, Rate 500 g/ha, scale of 0 to 10 where 0 is no effect and 10 is complete control
[5] = Rate 62 g/ha, Postemergence, scale 0 to 10 (0 no effect, 10 complete control)
[6] = Rate 125 g/ha, Postemergence, scale of 0 to 10 where 0 is no effect and 10 is complete control
[7] = Rate 125 g/ha, Preemergence, scale of 0 to 10 where 0 is no effect and 10 is complete control
[8] = Rate 250 g/ha, Postemergence, scale of 0 to 10 where 0 is no effect and 10 is complete control
[9] = Rate 500 g/ha, Postemergence, scale 0 to 10, 0 no effect, 10 complete control
[10] = Rate 250 g/ha, Pre-emergence, flood-test species, scale 0 to 10, 0 is no effect, 10 is complete control
[11] = Rate 500 g/ha, Pre-emergence, flood test species, scale 0 to 10 (0 no effect, 10 complete control)
[12] = Rate 125 g/ha, 0 to 100 scale, 0 is no effect, 100 is complete control
[13] = Rate 500 g/ha, 0 to 100 scale, 0 is no effect, 100 is complete control
[14] = Rate 125 g/ha, 0 to 100 scale (0 no effect, 100 complete control)
[15] = Rate 500 g/ha, 0 to 100 scale (0 no effect, 100 complete control)
[16] = Rate 1000 g/ha, 0 to 100 scale, 0 no effect, 100 complete control
[17] = Postemergence, Rate 125 g/ha, scale 0 to 10, 0 is no effect, 10 is complete control
[18] = Postemergence, Rate 250 g/ha, scale 0 to 10, 0 is no effect, 10 is complete control
[19] = Postemergence, Rate 500 g/ha, scale of 0 to 10 where 0 is no effect and 10 is complete control
[20] = Preemergence, Rate 62 g/ha, scale 0 to 10 (0 no effect, 10 complete control)
[21] = Rate 62 g/ha, Postemergence, scale of 0 to 10 where 0 is no effect and 10 is complete control

SMILES: CC(C)N(C(=O)n1oc(=O)n(CC(C)(C)C)c1=O)c1ccc(F)cc1F [Compound 277]
- Cocklebur plant response rating (cocklebur; Preemergence, Rate 62 g/ha, scale of 0 to 10 where 0 is no effect and 10 is complete control): 0
- Cocklebur plant response rating (cocklebur; [3]): 0
- Plant response rating, Cocklebur (cocklebur; [4]): 0
- Cocklebur plant response rating (cocklebur; [5]): 0
- Cocklebur plant response rating (cocklebur; [6]): 0
- Cocklebur plant response rating (cocklebur; [7]): 0
- Plant response rating, Cocklebur (cocklebur; [8]): 1
- Cocklebur plant response rating (cocklebur; [9]): 2
- Rape plant response rating (rape; [3]): 1
- Plant response rating, Rape (rape; [4]): 2
- Rape plant response rating (rape; [5]): 0
- Rape plant response rating (rape; [6]): 2
- Rape plant response rating (rape; [7]): 1
- Plant response rating, Rape (rape; [8]): 3
- Rape plant response rating (rape; [9]): 3
- Sugarbeets plant response rating (sugar beet; [3]): 2
- Plant response rating, Sugarbeets (sugar beet; [4]): 7
- Sugarbeets plant response rating (sugar beet; [5]): 1
- Sugarbeets plant response rating (sugar beet; [6]): 2
- Sugarbeets plant response rating (sugar beet; [7]): 1
- Plant response rating, Sugarbeets (sugar beet; [8]): 4
- Sugarbeets plant response rating (sugar beet; [9]): 5
- Barnyardgrass plant response rating (bamyardgrass; Rate 62 g/ha, headed Pre-emergence (flood test species), scale 0 to 10 (0 no effect, 10 complete control)): 2
- Barnyardgrass plant response rating (bamyardgrass; Rate 125 g/ha, Pre-emergence, flood test species, scale 0 to 10 where 0 is no effect and 10 is complete control): 2
- Barnyardgrass plant response rating (bamyardgrass; [10]): 1
- Barnyardgrass plant response rating (bamyardgrass; [11]): 9
- Plant response rating, Wheat (winter) (winter wheat [1]; [12]): 0
- Plant response rating, Wheat (winter) (winter wheat [1]; Rate 1000 g/ha, 0 to 100 scale where 0 is no effect and 100 is complete control): 10
- Wheat (winter) plant response rating (winter wheat [1]; Rate 250 g/ha, 0 to 100 scale where 0 is no effect and 100 is complete control): 0
- Plant response rating, Wheat (winter) (winter wheat [1]; [13]): 0
- Plant response rating, Blackgrass (blackgrass; [14]): 60
- Blackgrass plant response rating (0 to 100 scale) (blackgrass; Rate 250 g/ha): 100
- Plant response rating, Blackgrass (blackgrass; [15]): 70
- Plant response rating, Blackgrass (blackgrass; [16]): 100
- Plant response rating, Green foxtail (green foxtail; [14]): 95
- Green foxtail plant response rating (0 to 100 scale) (green foxtail; Rate 250 g/ha): 100
- Plant response rating, Green foxtail (green foxtail; [15]): 100
- Plant response rating, Green foxtail (green foxtail; [16]): 100
- Plant response rating, I. Ryegrass (Italian ryegrass; [14]): 65
- I. Ryegrass plant response rating (0 to 100 scale) (Italian ryegrass; Rate 250 g/ha): 75
- Plant response rating, I. Ryegrass (Italian ryegrass; [15]): 95
- Plant response rating, I. Ryegrass (Italian ryegrass; [16]): 100
- Plant response rating, Wheat (winter) (winter wheat [2]; [14]): 30
- Wheat (winter) plant response rating (0 to 100 scale) (winter wheat [2]; Rate 250 g/ha): 20
- Plant response rating, Wheat (winter) (winter wheat [2]; [15]): 10
- Plant response rating, Wheat (winter) (winter wheat [2]; [16]): 50
- Plant response rating, Wild oat (wild oat; [14]): 50
- Wild oat plant response rating (0 to 100 scale) (wild oat; Rate 250 g/ha): 60
- Plant response rating, Wild oat (wild oat; [15]): 65
- Plant response rating, Wild oat (wild oat; [16]): 70
- Plant response rating, Barley (winter) (winter barley; [14]): 30
- Barley (winter) plant response rating (0 to 100 scale) (winter barley; Rate 250 g/ha): 50
- Plant response rating, Barley (winter) (winter barley; [15]): 65
- Plant response rating, Barley (winter) (winter barley; [16]): 50

SMILES: CC(C)N(C(=O)n1oc(=O)n(CCC#N)c1=O)c1ccc(F)cc1 [Compound 388]
- Plant response rating, Cocklebur (cocklebur; [17]): 0
- Plant response rating, Cocklebur (cocklebur; [18]): 0
- Cocklebur plant response rating (cocklebur; [19]): 0
- Plant response rating, Cocklebur (cocklebur; [20]): 0
- Cocklebur plant response rating (0 to 10 scale) (cocklebur; Preemergence, Rate 125 g/ha): 0
- Cocklebur plant response rating (cocklebur; [3]): 0
- Cocklebur plant response rating (cocklebur; [4]): 0
- Cocklebur plant response rating (cocklebur; [21]): 0
- Plant response rating, Rape (rape; [17]): 0
- Rape plant response rating (rape; [19]): 0
- Plant response rating, Rape (rape; [20]): 0
- Rape plant response rating (0 to 10 scale) (rape; Preemergence, Rate 125 g/ha): 0
- Rape plant response rating (rape; [3]): 2
- Rape plant response rating (rape; [4]): 8
- Rape plant response rating (rape; [21]): 0
- Plant response rating, Sugarbeets (sugar beet; [17]): 0
- Plant response rating, Sugarbeets (sugar beet; [18]): 0
- Sugarbeets plant response rating (sugar beet; [19]): 4
- Plant response rating, Sugarbeets (sugar beet; [20]): 0
- Sugarbeets plant response rating (0 to 10 scale) (sugar beet; Preemergence, Rate 125 g/ha): 2
- Sugarbeets plant response rating (sugar beet; [3]): 3
- Sugarbeets plant response rating (sugar beet; [4]): 6
- Sugarbeets plant response rating (sugar beet; [21]): 0
- Plant response rating, Barnyardgrass (0 to 10 scale, 0 is no effect, 10 is complete control) (bamyardgrass; Rate 62 g/ha, flood test species, Pre-emergence, visual evaluation after twelve to sixteen days): 0
- Barnyardgrass plant response rating (0 to 10 scale, 0 is no effect, 10 is complete control) (bamyardgrass; Rate 125 g/ha, under heading Pre-emergence, flood test species, visual evaluation after twelve to sixteen days): 0
- Barnyardgrass plant response rating (bamyardgrass; [10]): 0
- Barnyardgrass plant response rating (bamyardgrass; [11]): 0
- Plant response rating, Wheat (winter) (winter wheat [1]; [12]): 30
- Plant response rating, Wheat (winter) (winter wheat [1]; Rate 250 g/ha, 0 to 100 scale, 0 is no effect, 100 is complete control): 30
- Plant response rating, Wheat (winter) (winter wheat [1]; [13]): 65
- Plant response rating, Blackgrass (blackgrass; Rate 125 g/ha, 0 to 100 scale): 0
- Plant response rating, Blackgrass (blackgrass; Rate 250 g/ha, 0 to 100 scale): 0
- Plant response rating, Blackgrass (blackgrass; [15]): 40
- Plant response rating, Green foxtail (green foxtail; Rate 125 g/ha, 0 to 100 scale): 30
- Plant response rating, Green foxtail (green foxtail; Rate 250 g/ha, 0 to 100 scale): 40
- Plant response rating, Green foxtail (green foxtail; [15]): 85
- Plant response rating, I. Ryegrass (Italian ryegrass; Rate 125 g/ha, 0 to 100 scale): 30
- Plant response rating, I. Ryegrass (Italian ryegrass; Rate 250 g/ha, 0 to 100 scale): 40
- Plant response rating, I. Ryegrass (Italian ryegrass; [15]): 60
- Plant response rating, Wheat (winter) (winter wheat [2]; Rate 125 g/ha, 0 to 100 scale): 50
- Plant response rating, Wheat (winter) (winter wheat [2]; Rate 250 g/ha, 0 to 100 scale): 50
- Plant response rating, Wheat (winter) (winter wheat [2]; [15]): 60
- Plant response rating, Wild oat (wild oat; Rate 125 g/ha, 0 to 100 scale): 20
- Plant response rating, Wild oat (wild oat; Rate 250 g/ha, 0 to 100 scale): 20
- Plant response rating, Wild oat (wild oat; [15]): 30
- Plant response rating, Barley (winter) (winter barley; [14]): 10
- Plant response rating, Barley (winter) (winter barley; Rate 250 g/ha, 0 to 100 scale, 0 no effect, 100 complete control): 20
- Plant response rating, Barley (winter) (winter barley; [15]): 70
